Laboratory results reported in US9606132B2, “Methods of monitoring adherence to lurasidone therapy” (Ameritox, Ltd., priority 2013, dated 2017).
Values joined by “and” are separate entries in the source; they are usually repeats but may differ in a detail not shown here. Identical values can stand only once.

What was measured:
[1] = cited from earlier work
[2] = cited from earlier work; remark: listed apart in the source
[3] = cited from earlier work; remark: listed apart in the source
CYP3A4 = target: T1, CYP3A4 (Homo sapiens, UniProt P08684); conditions: liver; cited from earlier work
T1 construct: host or cells: liver (in vivo metabolism, general statement)
T1 sequence (P08684 whole entry): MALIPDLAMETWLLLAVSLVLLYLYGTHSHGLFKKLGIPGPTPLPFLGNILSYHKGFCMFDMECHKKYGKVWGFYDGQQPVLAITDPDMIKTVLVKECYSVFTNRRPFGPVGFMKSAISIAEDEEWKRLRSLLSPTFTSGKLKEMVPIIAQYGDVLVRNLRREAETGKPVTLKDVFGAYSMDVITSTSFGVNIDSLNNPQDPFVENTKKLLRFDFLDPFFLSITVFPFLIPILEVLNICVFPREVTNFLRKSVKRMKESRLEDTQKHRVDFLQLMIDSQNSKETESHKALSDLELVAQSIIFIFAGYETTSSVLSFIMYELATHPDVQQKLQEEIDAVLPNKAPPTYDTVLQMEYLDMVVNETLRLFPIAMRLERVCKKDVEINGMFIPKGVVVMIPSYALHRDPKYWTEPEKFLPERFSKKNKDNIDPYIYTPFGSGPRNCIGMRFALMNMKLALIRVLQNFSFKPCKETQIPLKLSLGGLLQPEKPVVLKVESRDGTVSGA

[4] = Qualitative identification of lurasidone and metabolites in urine by Q-ToF MS/MS (Example 1); conditions: chronic lurasidone doses; for Lurasidone Metabolite Distribution in Human Urine (qualitative identification): individual subjects
Procedure: Urine samples of normally metabolizing human subjects who were known to be taking chronic doses of lurasidone were tested for the presence of lurasidone and eleven metabolites (excluding isomeric metabolites). Each patient sample was analyzed twice to ensure accuracy. Due to the high probability for false identification of isobars, MS/MS data was collected and selectively looked at to add confidence to the identification.

[5] = Quantitative urine testing of patients prescribed Latuda for compliance over 5 days (Examples 2-7)
Procedure: The urine of 20 patients who were prescribed 20 mg of Latuda® (lurasidone) was tested for compliance over 5 days (Table 3).
Samples that were deemed invalid based on pH and/or specific gravity (n=7) were not included in calculations. Any drug/metabolite concentration that was less than the LOD/LOQ (5 ng/mL) as noted in Table 3 was also excluded from the calculations.
The urine of 12 patients who were prescribed 40 mg of Latuda® (lurasidone) was tested for compliance over 5 days (Table 5).
Samples that were deemed invalid based on pH and/or specific gravity (n=3) were not included in calculations. Any drug/metabolite concentration that was less than the LOD/LOQ (5 ng/mL) as noted in Table 5 was also excluded from the calculations.
The urine of 2 patients who was prescribed 60 mg of Latuda® (lurasidone) was tested for compliance over 5 days (Table 7).
The urine of 15 patients who were prescribed 80 mg of Latuda® (lurasidone) was tested for compliance over 5 days (Table 9).
Any drug/metabolite concentration that was less than the LOD/LOQ (5 ng/mL) as noted in Table 5 was also excluded from the calculations.
The urine of 1 patient who was prescribed 100 mg of Latuda® (lurasidone) was tested for compliance over 5 days (Table 11).
The urine of 6 patients who were prescribed 120 mg of Latuda® (lurasidone) was tested for compliance over 5 days (Table 13).
Samples that were deemed invalid based on pH and/or specific gravity (n=2) were not included in calculations.

[6] = 20 mg/day, n 53 valid samples, values below LOD/LOQ excluded
[7] = 40 mg/day, n 33 valid samples, values below LOD/LOQ excluded
[8] = 80 mg/day, n 45, values below LOD/LOQ excluded

Lurasidone
log P [1]: 5.9
pKa [1]: 7.6
time to steady state serum concentrations ([2]; days of dosing): 7 days
mean elimination half-life ([2]; in vivo): 18 h
excreted in the feces ([3]; excretion studies in humans): 80%
recovered in the urine ([3]; excretion studies in humans): 9%
share of total radioactivity in plasma ([3]; plasma, post oral dosing): 12%
metabolizing enzyme (CYP3A4): metabolized in the liver primarily by CYP3A4
detectability in human urine (Example 1) [4]: detected in the majority of the samples
Lurasidone Metabolite Distribution in Human Urine (qualitative identification) ([4]; Run 1): ✓* (5×) and ✓^ (4×)
Lurasidone Metabolite Distribution in Human Urine (qualitative identification) ([4]; Run 2): ✓^ (4×) and ✓* (5×)
urine concentration ([5]; 20 mg/day Latuda, Day 1, individual subjects, ** = below LOD/LOQ 5 ng/mL (negative)): 9.7 ng/mL and 12.7 ng/mL and 9.0 ng/mL and 33.1 ng/mL and 24.6 ng/mL and 6.9 ng/mL and 6.0 ng/mL and 4.4* ** ng/mL and 9.1 ng/mL (2×) and 10.1 ng/mL and 5.7 ng/mL and 7.8 ng/mL and 12.9 ng/mL and 25.8 ng/mL and 13.8 ng/mL and 3.2** ng/mL and 83.1 ng/mL and 33.4 ng/mL and 12.0 ng/mL
urine concentration ([5]; 20 mg/day Latuda, Day 4, individual subjects, ** = below LOD/LOQ 5 ng/mL (negative)): 149.0 ng/mL and 14.3 ng/mL and 18.9 ng/mL and 4.8** ng/mL and 14.0 ng/mL and 5.7 ng/mL and 4.7* ** ng/mL and 7.0 ng/mL (2×) and 2.9* ** ng/mL and 31.3 ng/mL and 13.0 ng/mL and 7.3 ng/mL and 24.3 ng/mL and 4.3** ng/mL and 12.5 ng/mL and 17.5 ng/mL and 5.8 ng/mL and 29.1 ng/mL and 8.0 ng/mL
urine concentration ([5]; 20 mg/day Latuda, Day 5, individual subjects, ** = below LOD/LOQ 5 ng/mL (negative)): 9.6 ng/mL and 8.8 ng/mL and 13.2 ng/mL and 24.4 ng/mL and 26.2 ng/mL and 20.3 ng/mL and 6.5 ng/mL and 6.6 ng/mL and 6.0 ng/mL and 18.6 ng/mL and 12.1 ng/mL and 13.6 ng/mL and 5.4 ng/mL and 10.2 ng/mL and 11.0 ng/mL and 12.4 ng/mL and 5.2 ng/mL and 4.7** ng/mL and 23.2 ng/mL and 10.4 ng/mL
urine concentration, Maximum Value ([5]; 20 mg/day, n 53 valid samples): 149.00 ng/mL
urine concentration, Median Value ([5]; 20 mg/day, n 53 valid samples): 12.45 ng/mL
urine concentration, Average [5, 6]: 18.38 ng/mL
urine concentration, Minimum Value [5, 6]: 5.70 ng/mL
urine concentration ([5]; 40 mg/day Latuda, Day 1, individual subjects, ** = below LOD/LOQ 5 ng/mL (negative)): 30.5 ng/mL and 31.9 ng/mL and 63.9 ng/mL and 25.8 ng/mL and 4.4** ng/mL and 30.6 ng/mL and 9.8 ng/mL and 112.1 ng/mL and 14.0 ng/mL and 11.8 ng/mL and 129.1 ng/mL and 77.1 ng/mL
urine concentration ([5]; 40 mg/day Latuda, Day 4, individual subjects, ** = below LOD/LOQ 5 ng/mL (negative)): 21.7 ng/mL and 25.6 ng/mL and 70.7 ng/mL and 69.3 ng/mL and 26.4 ng/mL and 1.0** ng/mL and 41.3 ng/mL and 14.5 ng/mL and 54.0 ng/mL and 32.8 ng/mL and 12.8 ng/mL and 38.0 ng/mL
urine concentration ([5]; 40 mg/day Latuda, Day 5, individual subjects, ** = below LOD/LOQ 5 ng/mL (negative)): 37.9 ng/mL (2×) and 60.0 ng/mL and 33.4 ng/mL and 40.1 ng/mL and 1.3** ng/mL and 35.8 ng/mL and 7.2 ng/mL and 192.1 ng/mL and 11.3 ng/mL and 7.8 ng/mL and 56.4 ng/mL
urine concentration, Maximum Value ([5]; 40 mg/day, n 33 valid samples): 192.10 ng/mL
urine concentration, Median Value ([5]; 40 mg/day, n 33 valid samples): 33.10 ng/mL
urine concentration, Average [5, 7]: 44.23 ng/mL
urine concentration, Minimum Value [5, 7]: 7.20 ng/mL
urine concentration ([5]; 60 mg/day Latuda, Day 1, individual subjects): 16.3 ng/mL
urine concentration ([5]; 60 mg/day Latuda, Day 4, individual subjects): 25.3 ng/mL and 36.8 ng/mL
urine concentration ([5]; 60 mg/day Latuda, Day 5, individual subjects): 50.5 ng/mL
urine concentration, Average ([5]; 60 mg/day, n 6): 30.30 ng/mL
urine concentration, Maximum Value ([5]; 60 mg/day, n 6): 50.50 ng/mL
urine concentration, Median Value ([5]; 60 mg/day, n 6): 31.05 ng/mL
urine concentration, Minimum Value ([5]; 60 mg/day, n 6): 15.60 ng/mL
urine concentration, Maximum Value ([5]; 80 mg/day, n 45): 556.60 ng/mL
urine concentration, Median Value ([5]; 80 mg/day, n 45): 70.00 ng/mL
urine concentration, Average [5, 8]: 120.26 ng/mL
urine concentration, Minimum Value [5, 8]: 10.10 ng/mL
urine concentration, Average ([5]; 100 mg/day, n 3): 73.97 ng/mL
urine concentration, Maximum Value ([5]; 100 mg/day, n 3): 94.90 ng/mL
urine concentration, Median Value ([5]; 100 mg/day, n 3): 64.50 ng/mL
urine concentration, Minimum Value ([5]; 100 mg/day, n 3): 62.50 ng/mL
urine concentration, Average ([5]; 120 mg/day, n 16 valid samples): 95.42 ng/mL
urine concentration, Maximum Value ([5]; 120 mg/day, n 16 valid samples): 260.10 ng/mL
urine concentration, Median Value ([5]; 120 mg/day, n 16 valid samples): 73.60 ng/mL
urine concentration, Minimum Value ([5]; 120 mg/day, n 16 valid samples): 12.40 ng/mL
concentration in urine ([5]; patient prescribed 80 mg/day Latuda, subject II, day 1): 147.1 ng/mL
concentration in urine ([5]; patient prescribed 80 mg/day Latuda, subject II, day 4): 144.8 ng/mL
concentration in urine ([5]; patient prescribed 80 mg/day Latuda, subject II, day 5): 112.7 ng/mL
concentration in urine ([5]; patient prescribed 80 mg/day Latuda, subject eleven, day 1): 556.6 ng/mL
concentration in urine ([5]; patient prescribed 80 mg/day Latuda, subject eleven, day 4): 503.8 ng/mL
concentration in urine ([5]; patient prescribed 80 mg/day Latuda, subject eleven, day 5): 264.0 ng/mL
concentration in urine ([5]; patient prescribed 80 mg/day Latuda, subject fifteen, day 1): 138.5 ng/mL
concentration in urine ([5]; patient prescribed 80 mg/day Latuda, subject fifteen, day 4): 83.8 ng/mL
concentration in urine ([5]; patient prescribed 80 mg/day Latuda, subject fifteen, day 5): 67.6 ng/mL
concentration in urine ([5]; patient prescribed 80 mg/day Latuda, subject five, day 1): 57.3 ng/mL
concentration in urine ([5]; patient prescribed 80 mg/day Latuda, subject five, day 4): 69.6 ng/mL
concentration in urine ([5]; patient prescribed 80 mg/day Latuda, subject five, day 5): 100.6 ng/mL
concentration in urine ([5]; patient prescribed 80 mg/day Latuda, subject four, day 1): 175.2 ng/mL
concentration in urine ([5]; patient prescribed 80 mg/day Latuda, subject four, day 4): 96.4 ng/mL
concentration in urine ([5]; patient prescribed 80 mg/day Latuda, subject four, day 5): 116.3 ng/mL
concentration in urine ([5]; patient prescribed 80 mg/day Latuda, subject nine, day 1): 52.6 ng/mL
concentration in urine ([5]; patient prescribed 80 mg/day Latuda, subject nine, day 4): 43.7 ng/mL
concentration in urine ([5]; patient prescribed 80 mg/day Latuda, subject nine, day 5): 38.9 ng/mL
concentration in urine ([5]; patient prescribed 80 mg/day Latuda, subject nineteen, day 1): 210.7 ng/mL
concentration in urine ([5]; patient prescribed 80 mg/day Latuda, subject nineteen, day 4): 70.4 ng/mL
concentration in urine ([5]; patient prescribed 80 mg/day Latuda, subject nineteen, day 5): 16.1 ng/mL
concentration in urine ([5]; patient prescribed 80 mg/day Latuda, subject one, day 1, values marked ** below LOD/LOQ of 5 ng/mL = negative result, * ion ratio criteria not met): 4.8** ng/mL
concentration in urine ([5]; patient prescribed 80 mg/day Latuda, subject one, day 4): 52.0 ng/mL
concentration in urine ([5]; patient prescribed 80 mg/day Latuda, subject one, day 5): 22.9 ng/mL
concentration in urine ([5]; patient prescribed 80 mg/day Latuda, subject seventeen, day 1): 152.8 ng/mL
concentration in urine ([5]; patient prescribed 80 mg/day Latuda, subject seventeen, day 4): 83.3 ng/mL
concentration in urine ([5]; patient prescribed 80 mg/day Latuda, subject seventeen, day 5): 72.4 ng/mL
concentration in urine ([5]; patient prescribed 80 mg/day Latuda, subject sixteen, day 1): 10.1 ng/mL
concentration in urine ([5]; patient prescribed 80 mg/day Latuda, subject sixteen, day 4): 14.5 ng/mL
concentration in urine ([5]; patient prescribed 80 mg/day Latuda, subject sixteen, day 5): 41.0 ng/mL
concentration in urine ([5]; patient prescribed 80 mg/day Latuda, subject ten, day 1): 40.5 ng/mL
concentration in urine ([5]; patient prescribed 80 mg/day Latuda, subject ten, day 4): 162.5 ng/mL
concentration in urine ([5]; patient prescribed 80 mg/day Latuda, subject ten, day 5): 48.3 ng/mL
concentration in urine ([5]; patient prescribed 80 mg/day Latuda, subject thirteen, day 1): 145.2 ng/mL
concentration in urine ([5]; patient prescribed 80 mg/day Latuda, subject thirteen, day 4): 298.3 ng/mL
concentration in urine ([5]; patient prescribed 80 mg/day Latuda, subject thirteen, day 5): 539.5 ng/mL
concentration in urine ([5]; patient prescribed 80 mg/day Latuda, subject three, day 1): 59.5 ng/mL
concentration in urine ([5]; patient prescribed 80 mg/day Latuda, subject three, day 4): 35.9 ng/mL
concentration in urine ([5]; patient prescribed 80 mg/day Latuda, subject three, day 5): 69.5 ng/mL
concentration in urine ([5]; patient prescribed 80 mg/day Latuda, subject twelve, day 1, values marked ** below LOD/LOQ of 5 ng/mL = negative result): 0.0** ng/mL
concentration in urine ([5]; patient prescribed 80 mg/day Latuda, subject twelve, day 4): 32.9 ng/mL
concentration in urine ([5]; patient prescribed 80 mg/day Latuda, subject twelve, day 5): 43.5 ng/mL
concentration in urine ([5]; patient prescribed 80 mg/day Latuda, subject two, day 1): 23.0 ng/mL
concentration in urine ([5]; patient prescribed 80 mg/day Latuda, subject two, day 4, values marked ** below LOD/LOQ of 5 ng/mL = negative result): 0.1** ng/mL
concentration in urine ([5]; patient prescribed 80 mg/day Latuda, subject two, day 5): 36.7 ng/mL
concentration in urine ([5]; patient prescribed 120 mg/day Latuda, subject eight, day 1): 148.7 ng/mL
concentration in urine ([5]; patient prescribed 120 mg/day Latuda, subject eight, day 4): 260.1 ng/mL
concentration in urine ([5]; patient prescribed 120 mg/day Latuda, subject eight, day 5, specimen validity (creatinine, specific gravity) not acceptable): 57.2 ng/mL
concentration in urine ([5]; patient prescribed 120 mg/day Latuda, subject eighteen, day 1): 23.4 ng/mL
concentration in urine ([5]; patient prescribed 120 mg/day Latuda, subject eighteen, day 4): 27.5 ng/mL
concentration in urine ([5]; patient prescribed 120 mg/day Latuda, subject eighteen, day 5): 12.4 ng/mL
concentration in urine ([5]; patient prescribed 120 mg/day Latuda, subject fourteen, day 1): 102.7 ng/mL
concentration in urine ([5]; patient prescribed 120 mg/day Latuda, subject fourteen, day 4): 87.3 ng/mL
concentration in urine ([5]; patient prescribed 120 mg/day Latuda, subject fourteen, day 5): 59.1 ng/mL
concentration in urine ([5]; patient prescribed 120 mg/day Latuda, subject seven, day 1): 83.9 ng/mL
concentration in urine ([5]; patient prescribed 120 mg/day Latuda, subject seven, day 4): 46.4 ng/mL
concentration in urine ([5]; patient prescribed 120 mg/day Latuda, subject seven, day 5): 63.3 ng/mL
concentration in urine ([5]; patient prescribed 120 mg/day Latuda, subject six, day 1, specimen validity (creatinine) not acceptable): 21.7 ng/mL
concentration in urine ([5]; patient prescribed 120 mg/day Latuda, subject six, day 4, specimen validity (specific gravity) not acceptable): 23.7 ng/mL
concentration in urine ([5]; patient prescribed 120 mg/day Latuda, subject six, day 5): 61.6 ng/mL
concentration in urine ([5]; patient prescribed 120 mg/day Latuda, subject twenty, day 1): 126.2 ng/mL
concentration in urine ([5]; patient prescribed 120 mg/day Latuda, subject twenty, day 4): 150.7 ng/mL
concentration in urine ([5]; patient prescribed 120 mg/day Latuda, subject twenty, day 5): 251.7 ng/mL
